Data as given in US10245270B2, “Salt of 3-[(3-{[4-(4-morpholinylmethyl)-1H-pyrrol-2-yl]methylene}-2-oxo-2,3-dihydro-1H-indol-5-yl)methyl]-1,3-thiazolidine-2,4-dione, its preparation, and formulations containing it” (LES LABORATOIRES SERVIER, priority 2013, dated 2019).
Like-named read-outs stand apart in the source and are kept apart here.

Tests used:
[1] = Solubility in water, 24 hours stirring at ambient temperature, HPLC analysis; assay type: physicochemical; conditions: for solubility at 24 h: thermodynamic from solid
Experimental: A solution containing 140 mg of the compound obtained in Example 1 in 7 ml of water is stirred for 24 hours at ambient temperature. After filtration using an Acrodisc GJHP 0.45[…] μm, the solution is analysed by HPLC.

[2] = Constant surface area (intrinsic) dissolution kinetics at pH 2; assay type: physicochemical; conditions: for dissolution kinetics: pH 2 (0.01N HCl), ambient temperature, pellets of 0.075 cm^2, 100 rpm
Experimental: The constant surface area dissolution kinetics (or intrinsic dissolution kinetics) of the product of Example 1 were determined at ambient temperature at pH 2 (10 mL of 0.01N HCl) using a μDiss dissolution apparatus and pellets of 0.075 cm^2, prepared by compression at 90 bars, for 2 minutes at a stirring speed of 100 rpm.
The product of Example 1 dissolves with kinetics of 23 μg·s^−1·cm^−2+/−11%. By way of comparison, the dissolution kinetics of the corresponding hydrochloride are 1.6 μg·s^−1·cm^−2. The methanesulphonate therefore dissolves about 14 times faster than the corresponding hydrochloride.

cancer cells = conditions: cited from earlier work
[3] = Purity and stability under denaturing conditions (HPLC, X-ray diffractogram, DSC); assay type: physicochemical
Experimental: The compound of formula (II) according to the invention has excellent stability over time even under denaturing conditions: at 25° C./60% relative humidity, at 25° C./90% relative humidity, at 30° C./65% relative humidity, at 40° C./75% relative humidity, or at 50° C., the compound of formula (II) is unchanged after 6 months.
EXAMPLE 2: PURITY AND STABILITY OF 3[(3-{[4-(4-MORPHOLINYLMETHYL)-1H-PYRROL-2-YL]METHYLENE}-2-OXO-2,3-DIHYDRO-1H-INDOL-5-YL)METHYL]-1,3-THIAZOLIDINE-2,4-DIONE METHANESULPHONATE, Z ISOMER, UNDER DENATURING CONDITIONS

[4] = After 6 months, 25° C./60% relative humidity
[5] = After 6 months, 25° C./90% relative humidity
[6] = After 6 months, 30° C./65% relative humidity
[7] = After 6 months, 40° C./75% relative humidity

Q: With `Cl.O=C1Nc2ccc(CN3C(=O)CSC3=O)cc2/C1=C/c1cc(CN2CCOCC2)c[nH]1` (single isomer, unassigned) [hydrochloride of 3-[(3-([4-{(4-morpholinylmethyl)-1H-pyrrol-2-yl]methylene}-2-oxo-2,3-dihydro-1H-indol-5-yl)methyl]-1,3-thiazolidine-2,4-dione, Z isomer, reference compound] as the molecule, how does the solubility ([1]; as the salt) read?
A: 4.3 mg/mL

Q: And the “solubility in terms of the base equivalent” value ([1]; base equivalent)?
A: 4 mg/mL

Q: What about the dissolution kinetics [2] of the same molecule?
A: 1.6 μg·s^−1·cm^−2

Q: Which “ability to inhibit the migration of cancer cells” value (cancer cells) does the source give for `O=C1Nc2ccc(CN3C(=O)CSC3=O)cc2C1=Cc1cc(CN2CCOCC2)c[nH]1` [3-[(3-{[4-(4-morpholinylmethyl)-1H-pyrrol-2-yl]methylene}-2-oxo-2,3-dihydro-1H-indol-5-yl)methyl]-1,3-thiazolidine-2,4-dione] here?
A: has the ability to inhibit the migration of cancer cells

Q: For `O=C1Nc2ccc(CN3C(=O)CSC3=O)cc2C1=Cc1cc(CN2CCOCC2)c[nH]1` [Example 1, 3-[(3-{[4-(4-MORPHOLINYLMETHYL)-1H-PYRROL-2-YL]METHYLENE}-2-OXO-2,3-DIHYDRO-1H-INDOL-5-YL)METHYL]-1,3-THIAZOLIDINE-2,4-DIONE METHANESULPHONATE, Z ISOMER], which “DSC (thermogram)” value [3, 4] is on record?
A: unchanged

Q: What about the “HPLC (% Example 1)” value [3, 4] of the same molecule?
A: 99.8%

Q: What about the “XR (diffractogram)” value [3, 4] of the same molecule?
A: unchanged

Q: And the “DSC (thermogram)” value [3, 5]?
A: unchanged

Q: And the “HPLC (% Example 1)” value [3, 5]?
A: 99.8%

Q: What about the “XR (diffractogram)” value [3, 5] of the same molecule?
A: unchanged

Q: And the “DSC (thermogram)” value [3, 6]?
A: unchanged

Q: What about the “HPLC (% Example 1)” value [3, 6] of the same molecule?
A: 99.8%

Q: What about the “XR (diffractogram)” value [3, 6] of the same molecule?
A: unchanged

Q: And the “DSC (thermogram)” value [3, 7]?
A: unchanged

Q: And the “HPLC (% Example 1)” value [3, 7]?
A: 99.8%

Q: And the “XR (diffractogram)” value [3, 7]?
A: unchanged

Q: What about the “DSC (thermogram)” value ([3]; After 6 months, 50° C.) of the same molecule?
A: unchanged

Q: And the “HPLC (% Example 1)” value ([3]; After 6 months, 50° C.)?
A: 99.8%

Q: And the “XR (diffractogram)” value ([3]; After 6 months, 50° C.)?
A: unchanged

Q: What about the “HPLC (% Example 1)” value ([3]; t = 0) of the same molecule?
A: 99.8%

Q: What about the solubility at 24 h ([1]; as the salt, read-out: solubility) of the same molecule?
A: 14.7 mg/mL

Q: What about the solubility at 24 h ([1]; base equivalent, read-out: solubility in terms of the base equivalent) of the same molecule?
A: 12.1 mg/mL

Q: What about the dissolution kinetics [2] of the same molecule?
A: 23 μg·s^−1·cm^−2

Q: What about the “dissolution rate relative to the corresponding hydrochloride” value ([2]; pH 2, ambient temperature) of the same molecule?
A: about 14 times faster

Q: Which “stability over time under denaturing conditions” value ([3]; after 6 months at 25° C./60% RH, 25° C./90% RH, 30° C./65% RH, 40° C./75% RH or 50° C.) does the source give for `CS(=O)(=O)O.O=C1Nc2ccc(CN3C(=O)CSC3=O)cc2C1=Cc1cc(CN2CCOCC2)c[nH]1` [compound of formula (II), 3-[(3-{[4-(4-morpholinylmethyl)-1H-pyrrol-2-yl]methylene}-2-oxo-2,3-dihydro-1H-indol-5-yl)methyl]-1,3-thiazolidine-2,4-dione methanesulphonate] here?
A: unchanged
